Assay results reported in patent US20180344855A1, “Stable Anti-inflammatory Solutions for Injection” (Omeros Corporation, priority 2011, published 2018).
Where a name gives a salt, the structure may show the parent alone. Read-outs that look alike come from different tables or passages of the source. Blank lines part the entries; values can stand above or below the compound they belong to.

Key:
[1] = system: COX; conditions: non-selective COX assay; cited from earlier work
[2] = Procedure: Thus, the final concentration of Na citrate was about 50 mM. Three cGMP registration lots of the formulation, each in three hundred liter volume, were manufactured and stored at temperatures of 5° C., 25° C., 30° C., or 40° C. for long-term stability evaluation. Aliquots were taken from each lot at intervals and analyzed for potency and presence of related substances. In addition, the lots were visually inspected for appearance and the pH was also monitored.
Related substances (RS) were detected by HPLC.

[3] = One-liter scale stability study with or without Na2 EDTA, N2 overlay or sparge (Example 8); assay type: physicochemical; conditions: over six months
[4] = Formulation screening: storage stability, related substances by gradient HPLC (Examples 2-5); assay type: physicochemical; conditions: in the presence of 0.05% w/v Na2 EDTA versus none; up to thirty days
Procedure: The stability of the active pharmaceutical ingredients was tested in acetate or citrate buffers. […] Chromatographic conditions for the related substances assay were as follows: (a) Detection wave length, UV 215 nm; (b) Column, Zorbax SB-C8, 5 μm, 4.6×250 mm; (c) Column temp, 30±1° C.; (d) Sample temp, Ambient; (e) Flow rate, 1.2 mL/min; (f) Injection volume, 20 μL; (g) Run Time, 30 minutes.
F6 included 50 mM Na acetate buffer, pH 5.5; F7 included 50 mM Na citrate buffer, pH 5.5. […] Citric acid also has the ability to chelate divalent cations and can prevent oxidation, thus acting both as a buffering agent and an antioxidant.
The Stability of the Active Pharmaceutical Ingredients was Tested in Buffers with varying pH values. […] Data not shown. Both formulations included 50 mM Na citrate buffer. F8 pH was 6.5 and F9 pH was 5.5.
The stability of the active, pharmaceutical ingredients in liquid formulation was tested in the presence of N2 overlay and light protection. Two formulations, F10 and F11, were prepared and stored for up to 28 days under the conditions shown in FIG. 4A, i.e., with or without N2 overlay and light protection. […] F10 was prepared under protection from light and N2 overlay post-compounding and pre-filling of formulation into vials, while F11 was not.
The effect of antioxidants on stability of the active pharmaceutical ingredients in liquid formulation was tested. […]

[5] = target: 5-HT1B/1D receptor; conditions: human saphenous vein; read-out: IC50 (functional agonist); cited from earlier work
[6] = target: α1A- and α2A-adrenoceptors; conditions: range over α1A- and α2A-adrenoceptors; cited from earlier work
[7] = target: human 5-HT1B and 5-HT1D receptors; conditions: range over human 5-HT1B and 5-HT1D receptors; cited from earlier work
[8] = target: non-human 5-HT1A, 5-HT1B and 5-HT1D receptors; conditions: range over non-human 5-HT1A; cited from earlier work

SMILES: CC(C(=O)O)c1cccc(C(=O)c2ccccc2)c1 (stereo not drawn) [Ketoprofen, ketoprofen]
- IC50 [1]: 4 to 8 nM

- total RS % ([2]; stored at 30° C. and 40° C.): increased significantly
- total RS % ([2]; two years at 5° C.): 0.00%
- total RS % ([2]; two years at 25° C.): about 0.15%
- related substances of the named API [3]: less than 1%
SMILES: Cc1cc(C(C)(C)C)c(O)c(C)c1CC1=NCCN1 [Oxymetazoline HCl, oxymetazoline HCl]

- chemical stability [4]: improved
- stability in the tested formulation [2]: stable
- RS presence ([2]; 4° C.): present sporadically
- related substances of the named API [3]: less than 5%
SMILES: CN(C)CCC=C1c2ccccc2CCc2ccccc21 [amitriptyline HCl]
- percentage of RS over time ([2]; 25° C. and 30° C.): increased over the first three months, and then was stable for up to two years
- percentage of RS over time ([2]; 40° C.): increased during the first month and then stabilized

SMILES: Cc1cc(C(C)(C)C)c(O)c(C)c1CC1=NCCN1 [oxymetazoline]
- IC50 [5]: 30 nM
- Ki [6]: 3 to 6 nM
- Ki [7]: 0.3 to 0.4 nM
- IC50 [8]: 3 to 26 nM
